Results reported in patent US20140171417A1, “TRICYCLIC COMPOUNDS” (NOVARTIS AG, priority 2012, published 2014).

Target: T1, CFTR (Homo sapiens, UniProt P13569)
T1 construct: expressed in transfected cells
Assay: IonWorks Quattro assay (CFTR Inhibitor Assay), whole-cell planar patch clamp
Assay type: cell-based
Conditions: inward current (−100 mV); CHO cells stably expressing WT-CFTR; CFTR activated by 10 μM forskolin; test compound incubated 10 min
Excerpt: CFTR activity can be quantified by electrophysiology methods, using the whole-cell configuration of the patch clamp technique (Hamill O, Marty A, Neher E, Sakmann B and Sigworth F. ‘Improved patch-clamp techniques for high resolution current recording from cells and cell-free membrane patches.’ Pflugers Archive 1981 391: 85-100). This assay directly measures the currents associated with chloride flow through CFTR channels whilst either maintaining or adjusting the transmembrane voltage. This assay can use either single glass micropipettes or parallel planar arrays to measure CFTR activity from native or recombinant cell systems. Currents measured using parallel planar arrays can be quantified using an appropriately equipped instrument such as the IonWorks Quattro (Molecular Devices Corporation, Sunnyvale, Calif.). The Quattro system can measure CFTR currents from either a single cell per recording well (HT configuration) or alternatively from a population of 64 cells per well (Population Patch Clamp PPC) (Finkel A, Wittel A, Yang N, Handran S, Hughes J, Costantin J. ‘Population patch clamp improves data consistency and success rates in the measurement of ionic currents.’ J Biomol Screen. 2006 August; 11 (5):488-96).
Chinese hamster ovary (CHO) cells stably expressing WT-CFTR channels were used for the IonWorks Quattro experiments. Cells were maintained at 37° C. in 5% v/v CO2 at 100% humidity in MEM alpha medium supplemented with 10% (v/v) FCS, 100 U/mL Penicillin/Streptomycin, and 100 μg/L methotrexate. For experiments, cells were grown in 225 cm^2 tissue culture flasks until almost confluent. Cells were removed from the flask using trypsin-EDTA and resuspended in extracellular recording solution for immediate experimentation.
Cells, at a density of 1.5-2 million per mL, were placed on the Quattro system, added to the planar patch plate and seals allowed to establish for 5-10 mins. After assessing seal resistances (typically >50 MΩ), whole-cell access was obtained by perforation with 100 μg/mL amphotericin B. Baseline currents were measured by a pre-compound scan obtained by application of a voltage ramp from −100 to +100 mV. CFTR was activated by the addition of 10 μM forskolin to each of the 384 wells of the patch plate. After 5 min incubation the post-compound 1 currents were measured, again by application of a voltage ramp from −100 to +100 mV. Test compounds, diluted from 10 mM stocks in DMSO in extracellular solution were then added to the patch plate and were incubated for a further 10 min. The post-compound 2 currents were measured by the application of the same voltage ramp from −100 to +100 mV. The inhibition of CFTR was determined from the difference in current between the forskolin addition (post-compound 1) and the test compound (post-compound 2). This was determined at both −100 mV and +100 mV which represents the inward and outward current respectively.
Extracellular solution (ECS): 145 mM NaCl, 4 mM CsCl, 5 mM D-glucose, 10 mM TES, 1 mM CaCl2, 1 mM MgCl2, pH 7.4 NaOH
Intracellular solution (ICS): 113 mM L-Aspartic acid, 113 mM CsOH, 27 mM CsCl, 1 mM NaCl, 1 mM MgCl2, 1 mM EGTA, 10 mM TES. pH 7.2 with CsOH. Filter sterilized before use.

T1 sequence (P13569 whole entry): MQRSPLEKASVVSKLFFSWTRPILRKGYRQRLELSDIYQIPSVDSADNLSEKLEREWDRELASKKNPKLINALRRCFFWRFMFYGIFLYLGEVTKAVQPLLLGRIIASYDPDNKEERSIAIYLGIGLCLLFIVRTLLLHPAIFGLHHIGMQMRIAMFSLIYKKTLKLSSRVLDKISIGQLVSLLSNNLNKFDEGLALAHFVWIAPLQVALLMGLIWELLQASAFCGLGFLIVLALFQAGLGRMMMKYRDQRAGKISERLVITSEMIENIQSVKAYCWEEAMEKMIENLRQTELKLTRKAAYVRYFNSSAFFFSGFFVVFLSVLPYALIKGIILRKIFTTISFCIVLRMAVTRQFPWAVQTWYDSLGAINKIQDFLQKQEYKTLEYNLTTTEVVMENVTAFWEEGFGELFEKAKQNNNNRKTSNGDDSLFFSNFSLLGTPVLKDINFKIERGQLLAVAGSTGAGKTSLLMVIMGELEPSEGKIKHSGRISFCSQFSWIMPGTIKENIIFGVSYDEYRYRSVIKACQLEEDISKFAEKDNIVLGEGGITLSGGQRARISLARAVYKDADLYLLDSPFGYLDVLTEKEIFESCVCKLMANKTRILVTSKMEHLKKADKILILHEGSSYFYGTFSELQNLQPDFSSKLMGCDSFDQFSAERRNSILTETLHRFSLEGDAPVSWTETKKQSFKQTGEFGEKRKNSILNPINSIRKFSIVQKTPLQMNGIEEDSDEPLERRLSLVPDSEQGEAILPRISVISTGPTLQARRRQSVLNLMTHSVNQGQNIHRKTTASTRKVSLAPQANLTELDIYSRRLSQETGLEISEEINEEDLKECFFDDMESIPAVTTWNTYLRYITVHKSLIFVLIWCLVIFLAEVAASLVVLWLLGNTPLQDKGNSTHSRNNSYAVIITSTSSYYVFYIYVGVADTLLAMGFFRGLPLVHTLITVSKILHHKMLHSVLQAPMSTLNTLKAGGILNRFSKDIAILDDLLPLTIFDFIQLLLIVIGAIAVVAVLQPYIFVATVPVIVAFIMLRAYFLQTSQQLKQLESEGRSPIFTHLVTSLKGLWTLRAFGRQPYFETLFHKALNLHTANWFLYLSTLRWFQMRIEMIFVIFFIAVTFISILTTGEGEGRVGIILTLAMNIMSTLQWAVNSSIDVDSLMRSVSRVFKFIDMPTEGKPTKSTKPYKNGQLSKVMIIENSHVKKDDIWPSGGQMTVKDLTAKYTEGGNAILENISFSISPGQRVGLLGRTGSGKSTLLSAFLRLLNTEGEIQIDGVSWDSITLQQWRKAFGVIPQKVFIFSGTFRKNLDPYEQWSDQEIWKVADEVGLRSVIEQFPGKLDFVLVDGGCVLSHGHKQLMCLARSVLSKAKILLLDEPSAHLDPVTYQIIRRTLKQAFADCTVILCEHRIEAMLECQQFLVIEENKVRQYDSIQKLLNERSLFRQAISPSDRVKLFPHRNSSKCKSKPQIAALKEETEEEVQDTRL

| SMILES | IC50 [µM] |
| --- | --- |
| Cc1ccc(C2SCCn3c(-c4ccccc4)c4c(=O)n(C)c(=O)n(C)c4c32)o1 (single isomer, unassigned) [Example 1.3, 1,3-Dimethyl-10-(5-methylfuran-2-yl)-5-phenyl-7,8-dihydro-1H-pyrimido[4′,5′:3,4]pyrrolo[2,1-c][1,4]thiazine-2,4(3H,10H)-dione] | > 30 |
| Cn1cnc(-c2c3c(=O)n(C)c(=O)n(C)c3c3n2CCSC3c2ccc(Cl)o2)c1 (racemic) [Example 15.7, 10-(5-Chlorofuran-2-yl)-1,3-dimethyl-5-(1-methyl-1H-imidazol-4-yl)-7,8-dihydro-1H-pyrimido[4′,5′:3,4]pyrrolo[2,1-c][1,4]thiazine-2,4(3H,10H)-dione] | 5.5 |
| Cc1ccc([C@@H]2CC[C@@H](Cn3nccn3)n3c(-c4ccccc4)c4c(=O)n(C)c(=O)n(C)c4c32)o1 (single isomer, unassigned) [Example 24] | 1.74 |
| Cn1c(=O)c2c(-c3nc(CO)cs3)n3c(c2n(C)c1=O)[C@H](c1ccc(Cl)o1)SCC3 (single isomer, unassigned) [Example 15, 10-(5-Chlorofuran-2-yl)-5-(4-(hydroxymethyl)thiazol-2-yl)-1,3-dimethyl-7,8-dihydro-1H-pyrimido[4′,5′:3,4]pyrrolo[2,1-c][1,4]thiazine-2,4(3H,10H)-dione] | 0.1 |
| CN(C)C[C@@H]1Cn2c(-c3ccccc3)c3c(=O)n(C)c(=O)n(C)c3c2[C@@H](c2ccc(Cl)o2)S1 (single isomer, unassigned) [Example 14a, 10-(5-chlorofuran-2-yl)-8-((dimethylamino)methyl)-1,3-dimethyl-5-phenyl-7,8-dihydro-1H-pyrimido[4′,5′:3,4]pyrrolo[2,1-c][1,4]thiazine-2,4(3H,10H)-dione] | 0.31 |
| Cc1csc(-c2c3c(=O)n(C)c(=O)n(C)c3c3n2C[C@H](CNS(C)(=O)=O)S[C@H]3c2ccc(Cl)o2)n1 (single isomer, unassigned) [Example 26a, N-((10-(5-chlorofuran-2-yl)-1,3-dimethyl-5-(4-methylthiazol-2-yl)-2,4-dioxo-2,3,4,7,8,10-hexahydro-1H-pyrimido[4′,5′:3,4]pyrrolo[2,1-c][1,4]thiazin-8-yl)methyl)methanesulfonamide] | 0.15 |
| Cn1c(=O)c2c(-c3ccccc3)n3c(c2n(C)c1=O)C(c1ccc(Cl)o1)SC(CO)C3 (single isomer, unassigned) [Example 12.b, 10-(5-chlorofuran-2-yl)-8-(hydroxymethyl)-1,3-dimethyl-5-phenyl-7,8-dihydro-1H-pyrimido[4′,5′:3,4]pyrrolo[2,1-c][1,4]thiazine-2,4(3H,10H)-dione] | 0.54 |

The remaining lines, values ahead:

| IC50 [µM] | SMILES |
| --- | --- |
| 0.09 | Cc1nc(-c2c3c(=O)n(C)c(=O)n(C)c3c3n2CCC[C@H]3c2nc(Cl)cs2)cs1 (single isomer, unassigned) [Example 13.3a, 10-(4-chlorothiazol-2-yl)-1,3-dimethyl-5-(2-methylthiazol-4-yl)-7,8,9,10-tetrahydropyrimido[4,5-a]indolizine-2,4(1H,3H)-dione] |
| 1.39 | Cc1csc(C2c3c4c(c(-c5cccc(C#N)c5)n3CC2(C)C)c(=O)n(C)c(=O)n4C)n1 (single isomer, unassigned) [Example 21.8, 3-(1,3,8,8-Tetramethyl-9-(4-methylthiazol-2-yl)-2,4-dioxo-2,3,4,7,8,9-hexahydro-1H-pyrimido[4,5-a]pyrrolizin-5-yl)benzonitrile] |
| 0.1 | Cn1c(=O)c2c(-c3cccc(C#N)c3)n3c(c2n(C)c1=O)[C@H](c1nc(Cl)cs1)C[C@@H](CO)C3 (single isomer, unassigned) [Example 23.1a, 3-(10-(4-chlorothiazol-2-yl)-8-(hydroxymethyl)-1,3-dimethyl-2,4-dioxo-1,2,3,4,7,8,9,10-octahydropyrimido[4,5-a]indolizin-5-yl)benzonitrile] |
| 0.45 | CC(=O)NC[C@H]1Cn2c(-c3nc(C)cs3)c3c(=O)n(C)c(=O)n(C)c3c2[C@H](c2ccc(Cl)o2)S1 (single isomer, unassigned) [Example 26.3a, N-((10-(5-chlorofuran-2-yl)-1,3-dimethyl-5-(4-methylthiazol-2-yl)-2,4-dioxo-2,3,4,7,8,10-hexahydro-1H-pyrimido[4′,5′:3,4]pyrrolo[2,1-c][1,4]thiazin-8-yl)methyl)acetamide] |
| 0.29 | Cc1csc(C2CCCn3c(-c4cccc(C#N)c4)c4c(=O)n(C)c(=O)n(C)c4c32)n1 (single isomer, unassigned) [Example 9.1, 3-(1,3-dimethyl-10-(4-methylthiazol-2-yl)-2,4-dioxo-1,2,3,4,7,8,9,10-octahydropyrimido[4,5-a]indolizin-5-yl)benzonitrile] |
| 0.1 | Cn1c(=O)c2c(-c3nc(CO)cs3)n3c(c2n(C)c1=O)C(c1nc(Cl)cs1)CCC3 (single isomer, unassigned) [Example 13.1a, 10-(4-chlorothiazol-2-yl)-5-(4-(hydroxymethyl)thiazol-2-yl)-1,3-dimethyl-7,8,9,10-tetrahydropyrimido[4,5-a]indolizine-2,4(1H,3H)-dione] |
| 0.29 | Cc1cccc(-c2c3c(=O)n(C)c(=O)n(C)c3c3n2CCCC3c2nc(C)cs2)c1 (single isomer, unassigned) [Example 8.2, 1,3-dimethyl-10-(4-methylthiazol-2-yl)-5-m-tolyl-7,8,9,10-tetrahydropyrimido[4,5-a]indolizine-2,4(1H,3H)-dione] |
| 5.38 | Cc1csc(-c2c3c(=O)n(C)c(=O)n(C)c3c3n2C[C@H](CN)S[C@H]3c2ccc(Cl)o2)n1 (single isomer, unassigned) [Example 19, 8-(aminomethyl)-10-(5-chlorofuran-2-yl)-1,3-dimethyl-5-(4-methylthiazol-2-yl)-7,8-dihydro-1H-pyrimido[4′,5′:3,4]pyrrolo[2,1-c][1,4]thiazine-2,4(3H,10H)-dione] |
| 0.27 | Cn1c(=O)c2c(-c3cccc(C#N)c3)n3c(c2n(C)c1=O)C(c1nc(Cl)cs1)CC3 (single isomer, unassigned) [Example 20a, 3-(9-(4-chlorothiazol-2-yl)-1,3-dimethyl-2,4-dioxo-2,3,4,7,8,9-hexahydro-1H-pyrimido[4,5-a]pyrrolizin-5-yl)benzonitrile] |
| 0.1 | Cc1csc(-c2c3c(=O)n(C)c(=O)n(C)c3c3n2C[C@H](CO)S[C@H]3c2ccc(Cl)o2)n1 (single isomer, unassigned) [Example 17, 10-(5-chlorofuran-2-yl)-8-(hydroxymethyl)-1,3-dimethyl-5-(4-methylthiazol-2-yl)-7,8-dihydro-1H-pyrimido[4′,5′:3,4]pyrrolo[2,1-c][1,4]thiazine-2,4(3H,10H)-dione] |
